Data as given in patent publication US20210177722A1, “Phytic Acid Ester Derivative” (NATIONAL UNIVERSITY CORPORATION KUMAMOTO UNIVERSITY, priority 2018, published 2021).

Columns and labels:
HeLa cell = experiment: Quantitative determination of IP6 in cell (LC/MS of IP6 methyl ester); type: cell-based; conditions: HeLa cells, 10 μM, 30 minutes
Method: In this example, incorporation of Pro-IP6 into a HeLa cell was quantitatively determined.
HeLa cells (5×10^5 cells/well, culture fluid: 1 mL) were seeded in a 3.5 cm dish to be cultured for 24 hours. Thereafter, DMSO (1%, Fujifilm Wako Pure Chemical Corporation), an aqueous solution (1%) of IP6 (final concentration: 10 μM, Sigma Aldrich), or a DMSO solution (1%) of Pro-IP6 (final concentration: 10 μM) synthesized in Example 1 was added thereto, and the resultant was cultured for another 30 minutes. HeLa cells were cultured with neither IP6 nor Pro-IP6 added, followed by adding the same amount of DMSO thereto, and the resultant was used as a negative control.
Thereafter, the resultant was washed with 1× PBS (−) once, and the resultant cells were scraped with a cell scraper, transferred to a 1.5 mL tube, and washed with 1× PBS (−) three times. To the thus obtained precipitate, 350 μl of MeOH (Fujifilm Wako Pure Chemical Corporation) and 1% NP-40 (Nacalai Tesque, Inc.) were added, followed by sonication (10 minutes). After equilibrating a column (Oasis WAX 1cc, Waters) with MeOH (1 mL) and H2O (1 mL), a disrupted cell extract was added thereto. Thereafter, the column was washed with 50% MeOH (1 mL), and eluted with 50% MeOH (200 μL×2) containing 2 mol/L of HCl (Fujifilm Wako Pure Chemical Corporation). The thus obtained eluate was concentrated, and dissolved in MeOH (50 μL), and trimethylsilyldiazomethane (200 μl, Tokyo Chemical Industry Co., Ltd.) was added thereto, followed by stirring at 50° C. for 1 hour under argon atmosphere. The reaction was stopped by adding H2O (100 μL). Through a reaction of trimethylsilyidiazomethane with IP6, IP6 methyl ester is obtained.
The thus obtained sample (IP6 methyl ester) was measured by LC/MS [column: MastroC18 2.1 mm×100 mm, […] (Shimadzu GLC Ltd.), mobile phase: 0.1% formic acid solution (Fujifilm Wako Pure Chemical Corporation), acetonitrile (Fujifilm Wako Pure Chemical Corporation)] [LC:LC-20AD (Shimadzu), MS: amaZon speed (BRUKER)].

[1] = test system: MT-2 cell (HTLV transformed human T cell leukemia cell); experiment: MTT assay, MT-2 cell; type: cell-based; conditions: 1 μM or 10 μM, 8 hours or 24 hours
Method: (§1) In this example, the cytotoxic effect of Pro-IP6 on four types of blood cancer cell lines and a cell derived from a healthy person was examined by MTT assay. […] It is possible to check viability of cultured cells by MTT assay. Cancer cell lines (1.74×10^4 cells/well, culture fluid: 200 μL) • MT-2 cell (HTLV transformed human T cell leukemia cell) • […] cell (human T-lymphoblastoid cell) • Jurkat cell (human T-lymphocyte cell) • K562 cell (chronic myelogenous leukemia cell) Each of the above-described types of cells was seeded in a 96-well plate, and was cultured for 8 hours for each of the various cancer cell lines and for 16 hours for PMBC. Thereafter, DMSO (1%, Fujifilm Wako Pure Chemical Corporation), an aqueous solution (1%) of IP6 (final concentration: 1 μM or 10 μM, Sigma Aldrich), or a DMSO solution (1%) of Pro-IP6 (final concentration: 1 μM or 10 μM) was added thereto, followed by culturing for 8 hours or 24 hours. An MTT reagent (Dojindo Laboratories, 1.1 mg/mL) was added in an amount of 50 μL per well, and the resultant was cultured for another 4 hours. The thus precipitated crystal was collected, a supernatant was removed, and 100 μL of DMSO was added thereto to completely dissolve. The resultant solution was measured for an absorbance (550 nm).

[2] = test system: M8166 cell (human T-lymphoblastoid cell); experiment: MTT assay, M8166 cell; type: cell-based; conditions: M8166 cell, 1 μM or 10 μM, 8 hours or 24 hours
Method: as §1

[3] = test system: Jurkat cell (human T-lymphocyte cell); experiment: MTT assay, Jurkat cell; type: cell-based; conditions: Jurkat cell, 1 μM or 10 μM, 8 hours or 24 hours
Method: as §1

[4] = test system: K562 cell (chronic myelogenous leukemia cell); experiment: MTT assay, K562 cell; type: cell-based; conditions: 1 μM or 10 μM, 8 hours or 24 hours
Method: as §1

[5] = test system: S1T cell (ATL cell line) tumor; experiment: Effect on HTLV-1 infected cell-transplanted mouse (ATL model); type: in vivo; conditions: day 28 after transplantation, 7.1 mg/kg per day intraperitoneally for 28 days, NSG mice with S1T cells
Text: In this example, the in vivo effect of Pro-IP6 on an HTLV-1 infected cell-transplanted mouse was checked. HTLV-1 (human T cell leukemia virus 1) mainly infects CD4-positive T lymphocyte, and when the infected cell cancerates, refractory malignant tumor, adult T-cell leukemia (ATL) is caused. In this example, S1T cell, that is, one of ATL cell lines, was used.
5-Week-old female NSG mice (NOD. Cg-Prkdc scid I12rg tm1Wjl/SzJ, Charles River Laboratories Japan, Inc.) were used. Five mice each in each of two cages, namely, ten mice in total, were raised with sterilized bedding (Pepar Clean: Japan SLC, Inc.) placed in a sterilized cage (Clea Japan, Inc.). […]
The control group was dosed with DMSO, and the IP6 administration group and the pro-IP6 administration group were intraperitoneally dosed respectively with IP6 in an amount of 7.1 mg/kg and pro-IP6 in an amount of 20 mg/kg. The mice were dosed continuously for 28 days after the day of the cell transplantation, and the weight and the tumor volume of each mouse were measured every day. The tumor volume was defined as (shorter diameter in mm)^2×(longer diameter in mm)×0.5, and the shorter diameter and the longer diameter were measured with a caliper. […] Subsequently, the tumor was totally removed, and the tumor volume and the tumor weight of each tumor were measured.

O=P(O)(O)O[C@H]1[C@H](OP(=O)(O)O)[C@@H](OP(=O)(O)O)[C@H](OP(=O)(O)O)[C@@H](OP(=O)(O)O)[C@H]1OP(=O)(O)O [IP6, myo-inostiol-1,2,3,4,5,6-hexaphosphate, reference compound] was tested, and the “incorporation into HeLa cell (IP6 methyl ester by LC/MS vs negative control)” value (HeLa cell) was “substantially the same as that of the negative control”, the cytotoxic effect [1] was “minimally exhibited the effect” and the cytotoxic effect [2] was “minimally exhibited the effect”. The cytotoxic effect [3] was “minimally exhibited the effect”, the cytotoxic effect [4] was “minimally exhibited the effect” and the “tumor volume compared with that of the control group” value [5] was “not significantly different”.
